Reference: publication PMC3384297 (2012)

Columns and labels:
Experiment in all cases: FRET melting
[1] = system: F21D (DNA, G4) GGGTTAGGGTTAGGGTTAGGG; settings: 5 mM K+, 95 mM Li+; 10 mM lithium cacodylate pH 7.2; 0.2 µM DNA, 1 µM porphyrin
[2] = system: FGD (DNA, G4) GGGTGTGGGTGTGGGTGTGGG; settings: 5 mM K+, 95 mM Li+; 10 mM lithium cacodylate pH 7.2; 0.2 µM DNA, 1 µM porphyrin
[3] = system: F21D (DNA, G4) GGGTTAGGGTTAGGGTTAGGG; settings: 5 mM K+, 95 mM Li+; 10 mM Li cacodylate pH 7.2; 0.2 µM DNA, 1 µM NMM
[4] = system: FGD (DNA, G4) GGGTGTGGGTGTGGGTGTGGG; settings: 5 mM K+, 95 mM Li+; 10 mM Li cacodylate pH 7.2; 0.2 µM DNA, 1 µM NMM

Row | Structure (SMILES) | ΔT1/2 [1] [°C] | ΔT1/2 [2] [°C] | ΔT1/2 [3] [°C] | ΔT1/2 [4] [°C]
1 | C[n+]1ccc(-c2c3nc(c(-c4cc[n+](C)cc4)c4ccc([nH]4)c(-c4cc[n+](C)cc4)c4nc(c(-c5cc[n+](C)cc5)c5ccc2[nH]5)C=C4)C=C3)cc1 | 34 ± 2 | 31 ± 2 | – | –
2 | CCc1c(C)c2cc3nc(cc4nc(cc5c(CC)c(C)c(cc1[nH]2)n5C)C(C)=C4CCC(=O)O)C(CCC(=O)O)=C3C | – | – | 14 ± 2 | 12.5 ± 0.3
3 | C[n+]1ccc(-c2c3nc(c(-c4cc[n+](C)cc4)c4ccc([n-]4)c(-c4cc[n+](C)cc4)c4nc(c(-c5cc[n+](C)cc5)c5ccc2[n-]5)C=C4)C=C3)cc1.[Zn+2] | 23 ± 1 | 22.1 ± 0.9 | – | –
4 | C=Cc1c(C)c2cc3c(C=C)c(C)c(cc4nc(cc5nc(cc1[nH]2)C(C)=C5CCC(=O)O)C(CCC(=O)O)=C4C)n3C | 8.5 ± 0.6 | 9.8 ± 0.3 | – | –
5 | CCC1=C(C)c2cc3[nH]c(cc4nc(cc5[nH]c(cc1n2)c(C)c5CC)C(C)=C4CCC(=O)O)c(CCC(=O)O)c3C | 0.2 ± 0.3 | 0.8 ± 0.3 | – | –
6 | C=CC1=C(C)c2cc3[nH]c(cc4nc(cc5[nH]c(cc1n2)c(C)c5CCC(=O)O)C(CCC(=O)O)=C4C)c(C)c3C=C | 0.2 ± 0.3 | 0.2 ± 0.3 | – | –
